Experimental data as given in the NIST ThermoML archive (doi:10.1016/j.jct.2012.08.021).

Test: xn = mol fraction of the nth substance listed
Settings: 101 kPa, Liquid, Vibrating tube method

CN(CCO)CCO [N-methyldiethanolamine] + C[S+](C)[O-]
Settings | mass density [kg/m3]
293.14 K, x1 = 0.5998 | 1053.8
293.15 K, x1 = 0.1002 | 1089.57
293.15 K, x1 = 0.2 | 1079.89
293.15 K, x1 = 0.3001 | 1071.58
293.15 K, x1 = 0.4001 | 1064.66
293.15 K, x1 = 0.5002 | 1058.74
293.15 K, x1 = 0.7002 | 1049.58
293.15 K, x1 = 0.7998 | 1046.1
293.15 K, x1 = 0.8998 | 1043.37
293.15 K, x1 = 1 | 1040.6
303.14 K, x1 = 0.4001 | 1056.1
303.14 K, x1 = 0.5998 | 1045.65
303.15 K, x1 = 0.1002 | 1080.03
303.15 K, x1 = 0.2 | 1070.75
303.15 K, x1 = 0.3001 | 1062.76
303.15 K, x1 = 0.5002 | 1050.39
303.15 K, x1 = 0.7002 | 1041.61
303.15 K, x1 = 0.7998 | 1038.28
303.15 K, x1 = 0.8998 | 1035.67
303.15 K, x1 = 1 | 1033.02
313.14 K, x1 = 0.4001 | 1047.54
313.14 K, x1 = 0.5998 | 1037.49
313.15 K, x1 = 0.1002 | 1070.49
313.15 K, x1 = 0.2 | 1061.61
313.15 K, x1 = 0.3001 | 1053.94
313.15 K, x1 = 0.5002 | 1042.06
313.15 K, x1 = 0.7002 | 1033.61
313.15 K, x1 = 0.7998 | 1030.42
313.15 K, x1 = 0.8998 | 1027.95
313.15 K, x1 = 1 | 1025.4
323.14 K, x1 = 0.4001 | 1038.99
323.14 K, x1 = 0.5998 | 1029.33
323.15 K, x1 = 0.1002 | 1060.95
323.15 K, x1 = 0.2 | 1052.47
323.15 K, x1 = 0.3001 | 1045.11
323.15 K, x1 = 0.5002 | 1033.71
323.15 K, x1 = 0.7002 | 1025.6
323.15 K, x1 = 0.7998 | 1022.53
323.15 K, x1 = 0.8998 | 1020.18
323.15 K, x1 = 1 | 1017.74
333.14 K, x1 = 0.4001 | 1030.43
333.14 K, x1 = 0.5998 | 1021.15
333.15 K, x1 = 0.1002 | 1051.41
333.15 K, x1 = 0.2 | 1043.33
333.15 K, x1 = 0.3001 | 1036.29
333.15 K, x1 = 0.5002 | 1025.37
333.15 K, x1 = 0.7002 | 1017.56
333.15 K, x1 = 0.7998 | 1014.63
333.15 K, x1 = 0.8998 | 1012.37
333.15 K, x1 = 1 | 1010.03
343.14 K, x1 = 0.4001 | 1021.86
343.14 K, x1 = 0.5002 | 1017.01
343.14 K, x1 = 0.5998 | 1012.95
343.15 K, x1 = 0.1002 | 1041.86
343.15 K, x1 = 0.2 | 1034.18
343.15 K, x1 = 0.3001 | 1027.48
343.15 K, x1 = 0.7002 | 1009.51
343.15 K, x1 = 0.7998 | 1006.67
343.15 K, x1 = 0.8998 | 1004.51
343.15 K, x1 = 1 | 1002.25
353.14 K, x1 = 0.1002 | 1032.29
353.14 K, x1 = 0.4001 | 1013.27
353.14 K, x1 = 0.5002 | 1008.63
353.14 K, x1 = 0.5998 | 1004.72
353.14 K, x1 = 0.8998 | 996.587
353.14 K, x1 = 1 | 994.404
353.15 K, x1 = 0.2 | 1025.01
353.15 K, x1 = 0.7002 | 1001.4
353.16 K, x1 = 0.3001 | 1018.62
353.16 K, x1 = 0.7998 | 998.661
363.14 K, x1 = 0.1002 | 1022.7
363.14 K, x1 = 0.2 | 1015.82
363.14 K, x1 = 0.3001 | 1009.77
363.14 K, x1 = 0.5002 | 1000.22
363.14 K, x1 = 0.7002 | 993.263
363.14 K, x1 = 0.7998 | 990.621
363.14 K, x1 = 0.8998 | 988.594
363.15 K, x1 = 0.4001 | 1004.65
363.15 K, x1 = 0.5998 | 996.455
363.15 K, x1 = 1 | 986.471

OCCNCCO [diethanolamine] + C[S+](C)[O-]
Settings | mass density [kg/m3]
293.14 K, x1 = 0.9002 | 1097.48
293.15 K, x1 = 0.1002 | 1098.86
293.15 K, x1 = 0.1999 | 1097.33
293.15 K, x1 = 0.2998 | 1096.58
293.15 K, x1 = 0.4001 | 1096.23
293.15 K, x1 = 0.5001 | 1096.24
293.15 K, x1 = 0.6 | 1096.29
293.15 K, x1 = 0.7002 | 1096.88
293.15 K, x1 = 0.8001 | 1097.24
293.15 K, x1 = 1 | 1097.61
303.14 K, x1 = 0.4001 | 1087.87
303.14 K, x1 = 0.9002 | 1090.69
303.15 K, x1 = 0.1002 | 1089.38
303.15 K, x1 = 0.1999 | 1088.26
303.15 K, x1 = 0.2998 | 1087.88
303.15 K, x1 = 0.5001 | 1088.23
303.15 K, x1 = 0.6 | 1088.59
303.15 K, x1 = 0.7002 | 1089.43
303.15 K, x1 = 0.8001 | 1090.11
303.15 K, x1 = 1 | 1091.17
313.14 K, x1 = 0.4001 | 1079.49
313.15 K, x1 = 0.1002 | 1079.89
313.15 K, x1 = 0.1999 | 1079.19
313.15 K, x1 = 0.2998 | 1079.18
313.15 K, x1 = 0.5001 | 1080.19
313.15 K, x1 = 0.6 | 1080.87
313.15 K, x1 = 0.7002 | 1081.97
313.15 K, x1 = 0.8001 | 1082.9
313.15 K, x1 = 0.9002 | 1083.77
313.15 K, x1 = 1 | 1084.6
323.14 K, x1 = 0.4001 | 1071.1
323.15 K, x1 = 0.1002 | 1070.39
323.15 K, x1 = 0.1999 | 1070.11
323.15 K, x1 = 0.2998 | 1070.46
323.15 K, x1 = 0.5001 | 1072.12
323.15 K, x1 = 0.6 | 1073.1
323.15 K, x1 = 0.7002 | 1074.48
323.15 K, x1 = 0.9002 | 1076.8
323.15 K, x1 = 1 | 1077.88
323.16 K, x1 = 0.8001 | 1075.68
333.14 K, x1 = 1 | 1071.11
333.15 K, x1 = 0.1002 | 1060.89
333.15 K, x1 = 0.1999 | 1061.01
333.15 K, x1 = 0.2998 | 1061.72
333.15 K, x1 = 0.4001 | 1062.67
333.15 K, x1 = 0.5001 | 1064.01
333.15 K, x1 = 0.6 | 1065.3
333.15 K, x1 = 0.7002 | 1066.94
333.15 K, x1 = 0.8001 | 1068.41
333.15 K, x1 = 0.9002 | 1069.78
343.14 K, x1 = 0.4001 | 1054.22
343.14 K, x1 = 0.9002 | 1062.69
343.14 K, x1 = 1 | 1064.25
343.15 K, x1 = 0.1002 | 1051.36
343.15 K, x1 = 0.1999 | 1051.9
343.15 K, x1 = 0.2998 | 1052.96
343.15 K, x1 = 0.5001 | 1055.86
343.15 K, x1 = 0.6 | 1057.43
343.15 K, x1 = 0.7002 | 1059.34
343.15 K, x1 = 0.8001 | 1061.08
353.14 K, x1 = 0.1999 | 1042.77
353.14 K, x1 = 0.5001 | 1047.65
353.14 K, x1 = 0.7002 | 1051.66
353.14 K, x1 = 0.9002 | 1055.5
353.14 K, x1 = 1 | 1057.31
353.15 K, x1 = 0.1002 | 1041.8
353.15 K, x1 = 0.2998 | 1044.16
353.15 K, x1 = 0.4001 | 1045.72
353.15 K, x1 = 0.6 | 1049.5
353.15 K, x1 = 0.8001 | 1053.64
363.14 K, x1 = 0.1002 | 1032.21
363.14 K, x1 = 0.1999 | 1033.59
363.14 K, x1 = 0.2998 | 1035.35
363.14 K, x1 = 0.6 | 1041.5
363.14 K, x1 = 0.7002 | 1043.89
363.14 K, x1 = 0.8001 | 1046.12
363.14 K, x1 = 0.9002 | 1048.21
363.15 K, x1 = 0.4001 | 1037.18
363.15 K, x1 = 0.5001 | 1039.38
363.15 K, x1 = 1 | 1050.24
